# Measurements from patent US20190209581A1, “DOSAGE REGIMEN FOR TREATMENT OF SOLID TUMORS” (Eli Lilly and Company, priority 2016, published 2019).
# Experiments:
# [1] = test system: A2780 human ovarian cell line; experiment: Tumor growth inhibition, A2780 xenograft; type: in vivo; conditions: for % TGI: A2780 in mice
# Procedure: To evaluate in vivo efficacy and effect of 4,4,4-Trifluoro-N-[(1S)-2-[[(7S)-5-(2-hydroxyethyl)-6-oxo-7H-pyrido[2,3-d][3]benzazepin-7-yl]amino]-1-methyl-2-oxo-ethyl]butanamide on inhibition of Notch processing pharmacodynamics (PD), several cell lines- and patient-derived xenograft models are used. A2780 is a human ovarian cell line (Sigma-Aldrich, No. 93112519); SW480 is a human colorectal cell line (ATCC No. CCL-228); HCT 116 is a human colorectal cell line (ATCC No. CCL-247); U-87 MG is a human glioblastoma cell line (ATCC No. HTB-14); A375 is a human malignant melanoma cell line (ATCC No. CRL-1619); K-562 is a human chronic myelogenous leukemia (CML) cell line characterized by the presence of a fusion transcript comprised of the Bcr and Abl1 genes (ATCC No. CCL-243); Jurkat; HEL 92.1.7 is a human erythroleukemia cell line (ATCC No. TIB-180). Each of the cell lines are obtained from the American Type Culture Collection (ATCC) at the ATCC number stated, except the A2780 cell line which is obtained from Sigma-Aldrich at the stated catalog number. The cells are grown in their respective, recommended culture media at 37° C. in 5% CO2 with humidity in the atmosphere. A2780 (2×10^6), SW480 (6×10^6), HCT 116 (6×10^6), U-87 MG (6×10^6), and A-375 (10×10^6) cells in a 1:1 matrigel mix (0.2 mL volume) are implanted by subcutaneous injection in the hind leg of 6-8 weeks of age athymic nude female mice (Harlan Laboratories). K-562 (6×10^6) cells in a 1:1 matrigel mix (0.2 mL volume) are implanted by subcutaneous injection in the hind leg of 6-8 weeks of age CD1 nμ/nμ female mice (Charles River Laboratories). HEL 92.1.7 (7×10^6) in a 1:1 matrigel mix (0.2 mL volume) are implanted by subcutaneous injection in the hind leg of 6-8 weeks of age CB17 severely combined immune deficient female mice (Taconic Farms). Patient-derived tumors are minced into 1-2 mm pieces and mixed with matrigel (1:1) in 0.2 ml volume and implanted by subcutaneous injection in the hind leg of 6-8 weeks of age athymic nude female mice (Harlan Laboratories). Patients-derived tumor models include: human colon carcinoma (EL2144), human triple negative invasive ductal breast carcinoma (EL1997), human colon carcinoma (EL1989, EL 1986), and human glioblastoma (EL 2056) with samples obtained after patient consent and hospital approval from IU Health, Methodist Hospital, Indianapolis, Ind., USA 46206. A total of 7 to 10 mice are used for each group. Just before implantation for A2780, SW480, HEL 92.1.7, A-375, K-562, and patient-derived tumor models, animals are irradiated (450 Total Body Irradiation). Mice are fed ad libitum on normal chow. Treatment is initiated with oral administration (gavage) of compound or vehicle (1% Na-CMC in 0.25% Tween®-80) in 0.2 mL volume when tumor size reached to 150±50 mm^3. At designated time points following treatment, animals are sacrificed by CO2 asphyxiation and cervical dislocation. Tumors are removed and used for PD response analysis. Tumor growth and body weight are monitored over time to evaluate efficacy and signs of toxicity. Bidimensional measurements of tumors are performed twice a week and tumor volumes are calculated based on the following formula: (Tumor Volume)=[(L)×(W2)×(Π/6)] where L is mid-axis length and W is mid-axis width. Tumor volume data are transformed to a log scale to equalize variance across time and treatment groups. The log volume data are analyzed with a two-way repeated measures analysis of variance by time and treatment using the MIXED™ procedures in SAS™ software (version 8.2). The correlation model for the repeated measures is spatial power. Treated groups are compared to the control group at each time point. The MIXED™ procedure is also used separately for each treatment group to calculate adjusted means and standard errors at each time point. Both analyses account for the autocorrelation within each animal and the loss of data that occurs when animals with large tumors are removed from the study early. […]
# [2] = test system: HCT 116 human colorectal cell line; experiment: Tumor growth inhibition, HCT 116 xenograft; type: in vivo; conditions: HCT 116 in mice, oral 8 mg/kg, (Mon, Wed, Fri)x4; p <0.05 to <0.01
# Procedure: (§1) To evaluate in vivo efficacy and effect of 4,4,4-Trifluoro-N-[(1S)-2-[[(7S)-5-(2-hydroxyethyl)-6-oxo-7H-pyrido[2,3-d][3]benzazepin-7-yl]amino]-1-methyl-2-oxo-ethyl]butanamide on inhibition of Notch processing pharmacodynamics (PD), several cell lines- and patient-derived xenograft models are used. A2780 is a human ovarian cell line (Sigma-Aldrich, No. 93112519); SW480 is a human colorectal cell line (ATCC No. CCL-228); HCT 116 is a human colorectal cell line (ATCC No. CCL-247); U-87 MG is a human glioblastoma cell line (ATCC No. HTB-14); A375 is a human malignant melanoma cell line (ATCC No. CRL-1619); K-562 is a human chronic myelogenous leukemia (CML) cell line characterized by the presence of a fusion transcript comprised of the Bcr and Abl1 genes (ATCC No. CCL-243); Jurkat; HEL 92.1.7 is a human erythroleukemia cell line (ATCC No. TIB-180). […] Tumor growth and body weight are monitored over time to evaluate efficacy and signs of toxicity. Bidimensional measurements of tumors are performed twice a week and tumor volumes are calculated based on the following formula: (Tumor Volume)=[(L)×(W2)×(Π/6)] where L is mid-axis length and W is mid-axis width. […] The log volume data are analyzed with a two-way repeated measures analysis of variance by time and treatment using the MIXED™ procedures in SAS™ software (version 8.2). […]
# [3] = test system: A375 human malignant melanoma cell line; experiment: Tumor growth inhibition, A-375 xenograft; type: in vivo; conditions: A-375 in mice, oral 8 mg/kg, (Mon, Wed, Fri)x4; p NS
# Procedure: as §1
# [4] = test system: HEL 92.1.7 human erythroleukemia cell line; experiment: Tumor growth inhibition, HEL 92.1.7 xenograft; type: in vivo; conditions: HEL 92.1.7 in mice, oral 8 mg/kg, Q2dx14; p NS
# Procedure: as §1
# [5] = test system: human colon carcinoma (EL1989); experiment: Tumor growth inhibition, patient-derived tumor model EL1989; type: in vivo; conditions: EL1989 in mice, oral 10 mg/kg (Q2Dx7), 11-days OFF, 8 mg/kg (Mon, Wed, Fri)x3; p <0.0001
# Procedure: as §1
# [6] = test system: human colon carcinoma (EL2144); experiment: Tumor growth inhibition, patient-derived tumor model EL2144; type: in vivo; conditions: EL2144 in mice, oral 10 mg/kg, Q2Dx8; p <0.0001
# Procedure: as §1
# [7] = test system: human glioblastoma (EL 2056); experiment: Tumor growth inhibition, patient-derived tumor model EL2056; type: in vivo; conditions: EL2056 in mice, oral 8 mg/kg, (Mon, Wed, Fri)x5; p <0.0001
# Procedure: as §1
# [8] = test system: human colon carcinoma (EL 1986); experiment: Tumor growth inhibition, patient-derived tumor model EL1986; type: in vivo; conditions: EL1986 in mice, oral 8 mg/kg, (Mon, Wed, Fri)x5; p <0.0001
# Procedure: as §1
# [9] = Atropisomer equilibrium in solution by 1H NMR and LC-MS; type: physicochemical; conditions: ambient temperature, after 24 hours
# Procedure: In aqueous solutions, 8-9% of atropisomer 2 (minor atropisomer) is detected by ^1H NMR and LC-MS in equilibrium with atropisomer 1 (major atropisomer) at ambient temperature after 24 hours. In organic solvents, at ambient temperature after 24 hours, approximately 1-2% of atropisomer 2 is detected by ^1H NMR and LC-MS in equilibrium with atropisomer 1. Although detectable by ^1H NMR and LC-MS analysis, atropisomer 2 is not isolable.
compound,measurement,setting,value
"C[C@H](NC(=O)CCC(F)(F)F)C(=O)N[C@@H]1C(=O)N(CCO)c2ncccc2-c2ccccc21 [Compound 1, 4,4,4-trifluoro-N-[(1S)-2-[[(7S)-5-(2-hydroxyethyl)-6-oxo-7H-pyrido[2,3-d][3]benzazepin-7-yl]amino]-1-methyl-2-oxo-ethyl]butanamide]",% TGI,"[1]; oral 1.5 mg/kg, QDx26, p <0.05 to <0.01",33.36 (<0.05 to %
same,% TGI,"[1]; oral 3 mg/kg, (BID)QDx7 + (BID)Q2Dx7, p <0.0001",72.35 (<0.0001) %
same,% TGI,"[1]; oral 3 mg/kg, Q2Dx13, p <0.05 to <0.01",36.65 (<0.05 to %
same,% TGI,"[1]; oral 3 mg/kg, QDx21, p <0.0001",46.60 (<0.0001) %
same,% TGI,"[1]; oral 6 mg/kg, Q2Dx13, p <0.05 to <0.01",36.33 (<0.05 to %
same,% TGI,"[1]; oral 7 mg/kg, Q2Dx13, p <0.0001",56.95 (<0.0001) %
same,% TGI,"[1]; oral 8 mg/kg, Q2Dx13, p <0.0001",68.60 (<0.0001) %
same,% TGI,"[1]; oral 10 mg/kg, Q2Dx11, p <0.0001",56.55 (<0.0001) %
same,% TGI,"[1]; oral 10 mg/kg, Q2Dx13, p <0.0001",51.11 (<0.0001) %
same,% TGI,"[1]; oral 10 mg/kg, Q3Dx8, p <0.0001",32.99 (<0.0001) %
same,Effect of alternative dosing regimens on tumor growth inhibition,[1]; xenograft models of Table 5,more frequent dosing affords greater efficacy
same,% TGI,[2],37.58 (<0.05 to %
same,% TGI,[3],28.47 (NS) %
same,% TGI,[4],7.20 (NS) %
same,% TGI,[5],70.42 (<0.0001) %
same,% TGI,[6],53.37 (<0.0001) %
same,% TGI,[7],59.05 (<0.0001) %
same,% TGI,[8],62.00 (<0.0001) %
same,atropisomer 2 (minor atropisomer) in equilibrium with atropisomer 1,[9]; aqueous solutions,8-9%
same,atropisomer 2 (minor atropisomer) in equilibrium with atropisomer 1,[9]; organic solvents,1-2%
